We go through 6 compounds from patent publication US6878722B2, “Substituted cycloalkyl P1′ hepatitis C virus inhibitors” (Bristol-Myers Squibb Company, priority 2002, dated 2005).

What is called IC50 is the concentration that gives 50% inhibition. A word on the EC50: it is the concentration at which the effect is half-maximal.

Experiment [1] has as its target T1, HCV NS3/4A protease complex (BMS strain, genotype 1a) (Hepatitis C virus genotype 1a, UniProt P27958, C1454S).
T1 construct: DNA encoding the recombinant HCV NS3/4A protease complex (amino acids 1027 to 1711) for these strains; inferred from the pET21b vector and Ni-NTA purification; made in house; host or cells: Escherichia coli BL21 (DE3), pET21b
Briefly: Recombinant HCV NS3/4A protease complex FRET peptide assay, BMS strain. In kind it is biochemical. As to conditions: IC50 range, NS3/4A BMS Strain. The text has this:
The purpose of this in vitro assay was to measure the inhibition of HCV NS3 protease complexes, derived from the BMS, H77C or J416S strains, as described below, by compounds of the present invention.
Serum from an HCV-infected patient was obtained from Dr. T. Wright, San Francisco Hospital. An engineered full-length cDNA (compliment deoxyribonucleic acid) template of the HCV genome (BMS strain) was constructed from DNA fragments obtained by reverse transcription-PCR (RT-PCR) of serum RNA (ribonucleic acid) and using primers selected on the basis of homology between other genotype 1a strains. […] The infectious clones, H77C (1a genotype) and J4L6S (1b genotype) were obtained from R. Purcell (NIH) and the sequences are published in Genbank (AAB67036, see Yanagi,M., Purcell,R. H., Emerson,S. U. and Bukh,J. Proc. Natl. Acad. Sci. U.S.A. 94(16),8738-8743 (1997); AF054247, see Yanagi,M., St Claire,M., Shapiro,M., Emerson,S. U., Purcell,R. H. and Bukh,J, Virology 244 (1), 161-172. (1998)).
The BMS, H77C and J4L6S strains were used for production of recombinant NS3/4A protease complexes. DNA encoding the recombinant HCV NS3/4A protease complex (amino acids 1027 to 1711) for these strains were manipulated as described by P. Gallinari et al. (see Gallinari P, Paolini C, Brennan D, Nardi C, Steinkuhler C, De Francesco R. Biochemistry. 38(17):5620-32, (1999)). Briefly, a three-lysine solubilizing tail was added at the 3′-end of the NS4A coding region. The cysteine in the P1 position of the NS4A-NS4B cleavage site (amino acid 1711) was changed to a glycine to avoid the proteolytic cleavage of the lysine tag. Furthermore, a cysteine to serine mutation was introduced by PCR at amino acid position 1454 to prevent the autolytic cleavage in the NS3 helicase domain. The variant DNA fragment was cloned in the pET21b bacterial expression vector (Novagen) and the NS3/4A complex was expressed in Escherichia. coli strain BL21 (DE3) (Invitrogen) following the protocol described by P. Gallinari et al. (see Gallinari P, Brennan D, Nardi C, Brunetti M, Tomei L, Steinkuhler C, De Francesco R., J. Virol. 72(8):6758-69 (1998)) with modifications. Briefly, NS3/4A expression was induced with 0.5 mM Isopropyl β-D-1-thiogalactopyranoside (IPTG) for 22 hr at 20° C. […] The cells were resuspended in lysis buffer (10 mL/g) consisting of 25 mM N-(2-Hydroxyethyl)Piperazine-N′-(2-Ethane Sulfonic acid) (HEPES), pH 7.5, 20% glycerol, 500 mM Sodium Chloride (NaCl), 0.5% Triton-X100, 1 ug/ml lysozyme, 5 mM Magnesium Chloride (MgCl2), 1 ug/ml DnaseI, 5 mM β-Mercaptoethanol (βME), Protease inhibitor—Ethylenediamine Tetraacetic acid (EDTA) free (Roche), homogenized and incubated for 20 mins at 4° C. The homogenate was sonicated and clarified by ultra-centrifugation at 235000 g for 1 hr at 4° C. Imidazole was added to the supernatant to a final concentration of 15 mM and the pH adjusted to 8.0. The crude protein extract was loaded on a Nickel-Nitrilotriacetic acid (Ni-NTA) column pre-equilibrated with buffer B (25 mM HEPES, pH 8.0, 20% glycerol, 500 mM NaCl, 0.5% Triton-X100, 15 mM imidazole, 5 mM βME). The sample was loaded at a flow rate of 1 mL/min. The column was washed with 15 column volumes of buffer C (same as buffer B except with 0.2% Triton-X100). The protein was eluted with 5 column volumes of buffer D (same as buffer C except with 200 mM Imidazole).
NS3/4A protease complex-containing fractions were pooled and loaded on a desalting column Superdex-S200 pre-equilibrated with buffer D (25 mM HEPES, pH7.5, 20% glycerol, 300 mM NaCl, 0.2% Triton-X100, 10 mM βME).

Experiment [2] deals with HCV replicon in Huh7 cells. Briefly: HCV replicon cell-based assay (FRET). The settings on record: Hepatitis C virus, Huh-7; HCV replicon; read-out: EC50 range. From the text:
An HCV replicon whole cell system was established as described by Lohmann V, Korner F, Koch J, Herian U, Theilmann L, Bartenschlager R., Science 285(5424):110-3 (1999). This system enabled us to evaluate the effects of our HCV Protease compounds on HCV RNA replication. Briefly, using the HCV strain 1B sequence described in the Lohmann paper (Assession number: AJ238799), an HCV cDNA was generated encoding the 5′ internal ribosome entry site (IRES), the neomycin resistance gene, the EMCV (encephalomyocarditis viurs)-IRES and the HCV nonstructural proteins, NS3-NS5B, and 3′ non-translated region (NTR). In vitro transcripts of the cDNA were transfected into the human hepatoma cell line, Huh7. […] Resulting cell lines were characterized for positive and negative strand RNA production and protein production over time.
Huh7 cells, constitutively expressing the HCV replicon, were grown in Dulbecco's Modified Eagle Media (DMEM) containing 10% Fetal calf serum (FCS) and 1 mg/ml G418 (Gibco-BRL). Cells were seeded the night before (1.5×10^4 cells/well) in 96-well tissue-culture sterile plates. Compound and no compound controls were prepared in DMEM containing 4% FCS, 1:100 Penicillin/Streptomysin, 1:100 L-glutamine and 5% DMSO in the dilution plate (0.5% DMSO final concentration in the assay). Compound/DMSO mixes were added to the cells and incubated for 4 days at 37° C. After 4 days, plates were rinsed thoroughly with Phosphate-Buffered Saline (PBS) (3 times 150 μl). The cells were lysed with 25 μl of a lysis assay reagent containing the FRET peptide (RET S1, as described for the in vitro enzyme assay). The lysis assay reagent was made from 5× cell Luciferase cell culture lysis reagent(Promega #E153A) diluted to 1× with distilled water, NaCl added to 150 mM final, the FRET peptide diluted to 10 μM final from a 2 mM stock in 100% DMSO. The plate was then placed into the Cytofluor 4000 instrument which had been set to 340 nm excitation/490 emission, automatic mode for 21 cycles and the plate read in a kinetic mode. EC50 determinations were carried out as described for the IC50 determinations.
(A replicon is a self-replicating genome or part of one, used to study replication in cells.)

T1 sequence (P27958 1658-1714, looked up, stated change not applied): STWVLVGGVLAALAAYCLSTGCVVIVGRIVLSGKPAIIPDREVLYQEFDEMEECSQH
T1 sequence (P27958 1027-1657, looked up, stated change not applied): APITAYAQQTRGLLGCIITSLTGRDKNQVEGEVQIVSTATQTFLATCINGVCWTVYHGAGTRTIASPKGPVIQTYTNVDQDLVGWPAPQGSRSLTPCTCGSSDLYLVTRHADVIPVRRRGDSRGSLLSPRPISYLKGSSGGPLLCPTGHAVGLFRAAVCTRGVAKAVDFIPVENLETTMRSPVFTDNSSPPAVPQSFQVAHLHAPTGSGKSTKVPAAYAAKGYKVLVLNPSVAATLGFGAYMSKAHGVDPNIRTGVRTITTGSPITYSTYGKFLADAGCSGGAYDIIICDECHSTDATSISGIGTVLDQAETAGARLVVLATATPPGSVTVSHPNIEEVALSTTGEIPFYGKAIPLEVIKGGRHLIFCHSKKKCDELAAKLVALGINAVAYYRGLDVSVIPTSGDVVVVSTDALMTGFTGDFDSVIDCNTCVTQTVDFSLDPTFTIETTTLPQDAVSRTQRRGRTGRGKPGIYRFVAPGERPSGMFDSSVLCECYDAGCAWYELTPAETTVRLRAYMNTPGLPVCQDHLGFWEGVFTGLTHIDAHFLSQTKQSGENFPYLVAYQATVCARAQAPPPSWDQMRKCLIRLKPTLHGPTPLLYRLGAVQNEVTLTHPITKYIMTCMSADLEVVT

Take `C=CC1C[C@]1(NC(=O)[C@@H]1C[C@@H](Oc2cc(-c3ccccc3)nc3cc(OC)ccc23)CN1C(=O)[C@@H](NC(=O)OC(C)(C)C)C(C)(C)C)C(=O)NS(=O)(=O)C1(C(=O)NCCC)CC1` (stereo in doubt) [Compound 9, (1-{4-(7-Methoxy-2-phenylquinolin-4-yloxy)-2-[1-(1-propylcarbamoyl-cyclopropanesulfonylaminocarbonyl)-2-vinylcyclopropylcarbamoyl]pyrrolidine-1-carbonyl}-2,2-dimethyl-propyl)carbamic acid tert-butyl ester]: the IC50 in experiment [1] was less than 50 nM. In addition, the concentration giving a half-maximal response (EC50) in experiment [2] was less than 50 nM.

`C=CC1C[C@]1(NC(=O)[C@@H]1C[C@@H](Oc2cc(-c3ccccc3)nc3cc(OC)ccc23)CN1C(=O)[C@@H](NC(=O)OC1CCCC1)C(C)(C)C)C(=O)NS(=O)(=O)C1(C)CC1` (stereo in doubt) [Compound 12, (1-{4-(7-Methoxy-2-phenyl-quinolin-4-yloxy)-2-[1-(1-methylcyclopropanesulfonyl-aminocarbonyl)-2-vinyl-cyclopropylcarbamoyl]-pyrrolidine-1-carbonyl}-2,2-dimethylpropyl)carbamic acid cyclopentyl ester]: in experiment [1], the IC50 was less than 50 nM. The half-maximal effective concentration (EC50) in experiment [2] was less than 50 nM.

Take `C=CC1C[C@]1(NC(=O)[C@@H]1C[C@@H](Oc2cc(-c3ccccc3)nc3cc(OC)ccc23)CN1C(=O)[C@@H](NC(=O)CC1CC1)C(C)(C)C)C(=O)NS(=O)(=O)C1(C)CC1` (stereo in doubt) [Compound 13, 1-[2-(2-Cyclopropyl-acetylamino)-3,3-dimethyl-butyryl]-4-(7-methoxy-2-phenylquinolin-4-yloxy)-pyrrolidine-2-carboxylic acid [1-(1-methylcyclopropanesulfonylaminocarbonyl)-2-vinylcyclopropyl]amide]: the IC50 in experiment [1] was less than 50 nM. In addition, in experiment [2], the EC50 was less than 50 nM.

Take `C=CCC1(S(=O)(=O)NC(=O)[C@@]2(NC(=O)[C@@H]3C[C@@H](Oc4cc(-c5ccccc5)nc5cc(OC)ccc45)CN3C(=O)[C@@H](NC(=O)OC(C)(C)C)C(C)(C)C)CC2C=C)CC1` (stereo partly drawn) [Compound 2, {1-[2-[1-(1-Allylcyclopropanesul-fonylaminocarbonyl)-2-vinylcyclopropylcarbamoyl]-4-(7-methoxy-2-phenylquinolin-4-yloxy)-pyrrolidine-1-carbonyl]-2,2-dimethylpropyl}carbamic acid tert-butyl ester]: in experiment [1], the IC50 was less than 50 nM. The EC50 in experiment [2] is less than 50 nM.

Turning to `C=CC1C[C@]1(NC(=O)[C@@H]1C[C@@H](Oc2cc(-c3ccccc3)nc3cc(OC)ccc23)CN1C(=O)[C@@H](NC(=O)OC(C)(C)C)C(C)(C)C)C(=O)NS(=O)(=O)C1(COC)CC1` (stereo partly drawn) [Compound 7, {1-[2-[1-(1-Methoxymethylcyclopropanesulfonylaminocarbonyl)-2-vinylcyclopropylcarbamoyl]-4-(7-methoxy-2-phenyl-quinolin-4--yloxy)pyrrolidine-1-carbonyl]-2,2-dimeth-ylpropyl}-carbamic acid tert-butyl ester], in experiment [1], the IC50 was less than 50 nM. Further, the EC50 in experiment [2] is less than 50 nM.

Turning to `C=CC1C[C@]1(NC(=O)[C@@H]1C[C@@H](Oc2cc(-c3ccccc3)nc3cc(OC)ccc23)CN1C(=O)[C@@H](NC(=O)OC(C)(C)C)C(C)(C)C)C(=O)NS(=O)(=O)C1(CC2CC2)CC1` (stereo partly drawn) [Compound 8, {1-[2-[1-(1-Cyclopropylmethyl-cyclopropanesulfonylaminocarbonyl)-2-vinyl-cyclopropylcarbamoyl]-4-(7-methoxy-2-phenyl-quinolin-4-yloxy)-pyrrolidine-1-carbonyl]-2,2-dime-thylpropyl}-carbamic acid tert-butyl ester], the half-inhibitory concentration (IC50) in experiment [1] was less than 50 nM. Besides, the EC50 in experiment [2] was less than 50 nM.
